Results on six compounds are retold here after patent US20240351997A1, “NOVEL PARP7 INHIBITOR AND USE THEREOF” (SHANGHAI QILU PHARMACEUTICAL RESEARCH AND DEVELOPMENT …, priority 2021, published 2024).

Data set [1] concerns the target PARP7 (Homo sapiens (Human), UniProt Q7Z3E1). The data set is described as follows: In vitro enzymology experiment of PARP7 (enzymatic inhibition). The data set is classed as biochemical. In short, it runs like this:
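Histone-coated plate ADP-ribosylation format: compound preincubated 10 min at room temperature with preincubated (25 °C, 10 min) enzyme mixture; incorporated biotin detected by streptavidin-HRP and QuantaRed fluorescence (Ex550/Em620).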

Data set [2] in a line: In vivo pharmacokinetic assay in rats (intravenous injection and oral administration). As to conditions: SD rats; for AUC / clearance / half-life / Vd / Cmax: male, rat, plasma; for Vd: read-out: Vss. An excerpt:
(§1) III. In Vivo Pharmacokinetic Assay in Mice and Rats
(§2) The pharmacokinetic behavior of the compound of the present disclosure in plasma after a single intravenous injection and oral administration was studied using male C57BL/6 mice or SD male rats as experimental animals.
(§3) Healthy adult C57BL/6 mice or SD rats (3 mice or rats per group), male, supplied by Shanghai Jihui Laboratory Animal Care Co., Ltd. and Vital River Laboratory Animal Technology Co., Ltd.
(§4) Both the intravenous injection and oral administration groups consisted of 3 mice or rats. The intravenous injection was at a dose of 1 mg/kg and in a volume of 5 mL/kg; the oral administration was at a dose of 5 mg/kg and in a volume of 10 mL/kg. The vehicle for administration was 5% DMSO/5% Kolliphor HS 15/90% Saline.
(§5) 2.3 Experimental Equipment
(§6) The centrifuge was purchased from Eppendorf, and the pipette was purchased from Eppendorf.
(§7) After the animals were administered, 0.02 mL of blood was collected from the vein at 0.0833 (IV), 0.25, 0.5, 1, 2, 4, 8, and 24 hours, respectively, placed in an EDTA-K2 test tube, centrifuged at 4600 rpm for 5 minutes at 4° C. to separate the plasma, and stored at −80° C.
(§8) 1) 10 μL of plasma sample was precipitated by adding 200 μL of acetonitrile, vortexed to mix, and centrifuged for 15 minutes.
(§9) 2) The treated supernatant was diluted with water, and the concentration of the test compound was analyzed by LC/MS/MS.
(§10) • Liquid phase conditions: Shimadzu LC-30AD • Mass spectrometry conditions: AB Sciex API 5500 • Chromatographic column: Phenomenex Kinetex 2.6 μm C18 • Mobile phases: A: 5 mM ammonium acetate aqueous solution (containing 0.05% formic acid); B: acetonitrile (containing 0.1% formic acid); flow rate: 0.5 mL/min
(§11) 3. Experimental Results and Analysis
(§12) Pharmacokinetic parameters were calculated using WinNonlin 8.0, and the pharmacokinetic parameters for intravenous injection and oral administration in mice or rats are shown in Table 2 and Table 3 below: […]

The nature of data set [3]: In vivo pharmacokinetic assay in mice (intravenous injection and oral administration). Particulars: C57BL/6 mice; for AUC / clearance / half-life / Vd / Cmax: male, mouse, plasma; for Vd: read-out: Vss.
Description: as §1, §2, §3, §4, §5, §6, §7, §8, §9, §10, §11, §12

PARP7, sequence (Q7Z3E1 whole entry): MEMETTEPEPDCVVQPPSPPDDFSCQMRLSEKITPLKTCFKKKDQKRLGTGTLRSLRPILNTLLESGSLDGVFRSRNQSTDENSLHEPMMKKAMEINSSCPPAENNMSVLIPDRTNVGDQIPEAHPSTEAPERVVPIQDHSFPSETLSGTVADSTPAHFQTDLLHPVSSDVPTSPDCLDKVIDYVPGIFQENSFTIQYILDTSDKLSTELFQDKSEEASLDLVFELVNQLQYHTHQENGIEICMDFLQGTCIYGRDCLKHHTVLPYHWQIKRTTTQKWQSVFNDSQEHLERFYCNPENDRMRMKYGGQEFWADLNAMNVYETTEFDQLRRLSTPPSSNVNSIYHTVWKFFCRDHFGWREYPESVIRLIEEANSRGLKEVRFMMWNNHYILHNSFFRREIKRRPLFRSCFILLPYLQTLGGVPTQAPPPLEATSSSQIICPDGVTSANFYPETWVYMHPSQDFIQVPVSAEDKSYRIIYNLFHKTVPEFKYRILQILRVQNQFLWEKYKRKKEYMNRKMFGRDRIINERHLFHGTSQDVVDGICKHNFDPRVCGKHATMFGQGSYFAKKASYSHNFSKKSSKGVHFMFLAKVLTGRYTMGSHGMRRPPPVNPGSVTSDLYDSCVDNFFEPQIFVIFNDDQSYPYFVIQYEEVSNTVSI

Take `C[C@@H](Cc1c[nH]c(=O)c(C(F)(F)F)c1)OC(=O)N1CCN(c2ncc(C(F)(F)F)cn2)CC1` (single isomer, unassigned) [Example 35]: in data set [1], the IC50 stood at 530 pM. In data set [2] (oral administration, 5 mg/kg), this compound came in with an F of 35%, an AUC of 1060 ng·h/mL and a Cmax of 434 ng/mL. In data set [2] (intravenous injection, 1 mg/kg), the AUC stood at 633 ng·h/mL, the clearance is 28.3 mL/min/kg, the half-life was 3.5 h and the Vd was determined as 3.3 L/kg. In data set [3] (oral administration, 5 mg/kg), this compound had an F of 52%, an AUC of 6760 ng·h/mL and a Cmax of 3750 ng/mL. Besides, in data set [3] (intravenous injection, 1 mg/kg), the exposure (AUC) is 2570 ng·h/mL, the clearance was 6.67 mL/min/kg, the half-life was 4.2 h and the Vd worked out at 1.5 L/kg.
Take `O=C(OCCc1c[nH]c(=O)c(C(F)(F)F)c1)N1CCN(c2ncc(C(F)(F)F)cn2)CC1` [Example 3, 2-(6-Oxo-5-(trifluoromethyl)-1,6-dihydropyridin-3-yl)ethyl 4-(5-(trifluoromethyl)pyrimidin-2-yl)piperazine-1-carboxylate]: the IC50 in data set [1] was 1800 pM. In data set [2] (oral administration, 5 mg/kg), this compound gave an F of 47%, an AUC of 13800 ng·h/mL and a Cmax of 2350 ng/mL. Further, in data set [2] (intravenous injection, 1 mg/kg), the AUC is 5740 ng·h/mL, the clearance was 3.33 mL/min/kg, the half-life was 4.7 h and the Vd is 0.9 L/kg. Also, in data set [3] (oral administration, 5 mg/kg), the F is 80%, the exposure (AUC) is 42200 ng·h/mL and the Cmax stood at 9310 ng/mL. Besides, in data set [3] (intravenous injection, 1 mg/kg), the AUC came to 10400 ng·h/mL, the clearance is 1.5 mL/min/kg, the half-life is 6.1 h and the Vd was 0.6 L/kg.
In turn, `C[C@@H](Cc1c[nH]c(=O)c(C(F)(F)F)c1)OC(=O)N1CCN(c2ncc(C(F)(F)F)cn2)[C@@H](C)C1` [Example 93, (S)-1-(6-Oxo-5-(trifluoromethyl)-1,6-dihydropyridin-3-yl)propan-2-yl (S)-3-methyl-4-(5-(trifluoromethyl)pyrimidin-2-yl)piperazine-1-carboxylate] yielded an IC50 in data set [1] of 780 pM. In data set [2] (oral administration, 5 mg/kg), the F amounted to 77%, the AUC stood at 3830 ng·h/mL and the highest concentration (Cmax) is 809 ng/mL. In addition, in data set [2] (intravenous injection, 1 mg/kg), the AUC amounted to 978 ng·h/mL, the clearance is 16.7 mL/min/kg, the half-life was 1.9 h and the Vd was 1.9 L/kg.
In data set [1], `C[C@@H]1CN(c2ncc(C(F)(F)F)cn2)CCN1C(=O)OCCc1c[nH]c(=O)c(C(F)(F)F)c1` [Example 109, 2-(6-Oxo-5-(trifluoromethyl)-1,6-dihydropyridin-3-yl)ethyl (R)-2-methyl-4-(5-(trifluoromethyl)pyrimidin-2-yl)piperazine-1-carboxylate] returned an IC50 of 380 pM. In data set [2] (oral administration, 5 mg/kg), the F is given as 99%, the AUC worked out at 5380 ng·h/mL and the concentration peaked (Cmax) at 1310 ng/mL. For the same compound, in data set [2] (intravenous injection, 1 mg/kg), the AUC was 1060 ng·h/mL, the clearance was 15 mL/min/kg, the half-life is 2.3 h and the Vd came out at 2.1 L/kg. In data set [3] (oral administration, 5 mg/kg), this compound showed an F of 72%, an AUC of 29600 ng·h/mL and a Cmax of 8490 ng/mL. In data set [3] (intravenous injection, 1 mg/kg), the AUC came to 8100 ng·h/mL, the clearance is 1.67 mL/min/kg, the half-life was 6.3 h and the Vd came to 0.6 L/kg.
For the compound `C[C@@H]1CN(C(=O)OCCc2c[nH]c(=O)c(C(F)(F)F)c2)[C@@H](C)CN1c1ncc(C2CC2)cn1` [Example 183, 2-(6-Oxo-5-(trifluoromethyl)-1,6-dihydropyridin-3-yl)ethyl (2S,5R)-4-(5-cyclopropylpyrimidin-2-yl)-2,5-dimethylpiperazine-1-carboxylate], half-maximal inhibition in data set [1] (IC50) required 1000 pM.
`C[C@@H]1CN(c2ncc(C3CC3)cn2)[C@@H](C)CN1C(=O)OCCc1c[nH]c(=O)c(C(F)(F)F)c1` [Example 184, 2-(6-Oxo-5-(trifluoromethyl)-1,6-dihydropyridin-3-yl)ethyl (2R,5S)-4-(5-cyclopropylpyrimidin-2-yl)-2,5-dimethylpiperazine-1-carboxylate]: inhibition in data set [1] was half-maximal at 1200 pM (IC50).

Broadly, the IC50 is the concentration that inhibits the measured activity by half. The low end stands for higher potency, the high end for lower potency. In general, AUC refers to the area under the concentration-time curve, a measure of exposure. Low values mean less exposure, high ones more exposure. A word on the half-life: it is the time needed for the level to fall by half in the phase considered. One may read the Cmax as the maximum level reached in the sampled fluid or tissue.
